Among the data in patent publication US10731197B2, “Methods for detecting or quantifying CTP and CTP synthase activity” (Assistance Publique-Hopitaux de Paris, priority 2015, dated 2020) are Vmax values, retold here.

The assay relates to CTP synthase. In words: Determination of CTP synthase Michaelis-Menten constants Km and Vmax (CTP formation kinetics from UTP, LC-MS/MS). Format: biochemical, human. Conditions: initial UTP 0 to 6 mM. On the procedure:
The cell extracts may be obtained from cultured cells (primary cultures of cells, blasts or cell lines), from blood derived cells. Particularly, mononuclear cells (PBMCs, peripheral blood mononuclear cells) have been isolated from peripheral blood. The cells were washed with phosphate buffer 0.1 M KH2PO4, pH=7.4, and then collected in HEPES buffer 70 mM, pH=8.0, containing 10 mM NaF and protease inhibitors leupeptin and pepstatin to the concentration of 10 μg/mL. The cells were immediately placed in a bath of ethanol and dry ice, and then placed for at least 1 hour at −80° C. The cells were then centrifuged for 30 minutes at 10 000 g at 4° C. The supernatant, containing the cytosolic fraction, was collected and contained proteins were dosed. One to 10 µg of proteins, prepared as described above, were used for measuring CTP synthase activity in a reaction mixture containing 4 μM internal standard, 1.25 mM UTP, 1.25 mM ATP, 0.31 mM GTP, 12.5 mM glutamine, 1.25 mM phosphoenolpyruvate, 0.62 mM EDTA and 10 mM NaF in 15 μL complete HEPES buffer 70 mM, pH=8.0. Enzymatic reaction was carried out at 37° C. for 90 minutes and then, the reaction tubes were cooled on ice and the enzymatic reaction was stopped by adding 15 μL HCLO4 1 M. The reaction tubes were vortexed and centrifuged for 5 minutes at 12 000 g at 4° C. The supernatants were diluted with the aqueous mobile phase A and transferred to a 384-well plate. Analyses were performed using a Waters chromatographic UPLC system (Acquity™ UPLC) connected to a Waters TQD quadrupole mass spectrometer, operated in the electrospray positive ion mode with selected reaction monitoring (SRM). […] Waters HSS T3, 1.8 μm particle size, 2.1×100 mm column, which was maintained at 30° C. throughout the analysis. The flow rate was 0.5 mL/min. Mobile phase A was 5 mM dibutylamine acetate in water and mobile phase B, 5 mM dibutylamine acetate in acetonitrile. Three distinct mobile-phase gradients were used (see Tables 6a to 6c below). Then the enzymatic constants of Michaelis-Menten, Km and Vmax were determined by performing CTP formation kinetics during 90 minutes by using initial concentrations of UTP ranging from 0 to 6 mM. The values obtained for Vmax and Km were of the same order of magnitude as those previously published with radio-isotopic methods (FIG. 4).

For orientation: Vmax means the rate approached at saturating substrate. For `O=c1ccn([C@@H]2O[C@H](COP(=O)(O)OP(=O)(O)OP(=O)(O)O)[C@@H](O)[C@H]2O)c(=O)[nH]1` [UTP, uridine triphosphate], the maximal velocity (Vmax) reads like this: (PBMCs activated, 90 minutes) 0.379 ± 0.091 nmol/min; (activated PBMC protein extracts, 90 min) 0.3789 ± 0.091 nmol/min; (resting PBMC protein extracts, 90 min) 0.083 ± 0.02 nmol/min; (resting cells, 90 minutes) 0.083 ± 0.02 nmol/min.
